The text below walks through data of patent publication US11632963B2, “Tuber storage” (Arysta Lifescience Benelux Sprl, priority 2014, dated 2023).

Test [1] concerns Potatoes from the variety Bintje, Innovator and Nicola. As to the kind of experiment: Fresh sprout weight of stored potatoes treated by fogging (Example 7). It counts as in vivo, Solanum tuberosum. The note with it: Treatment at 50 ml/ton, corresponding to 450 g limonene/ton or 450 ppm. As to the method: Potatoes were treated with 100% orange oil every 3 weeks via application by cold fogging using a potato mist blower VEUGEN in the above part of a storage cell between bag fillings and the top of the cell.
Potatoes from the variety Bintje, Innovator and Nicola were stored in a storage room and each storage room (trail number) was treated with a different product in the anti-sprouting treatment. BIO-024 stands for Orange oil, with at least 900 g limonene/1, BIOX M is a trade name of a mint oil based product that is commercially available as an anti-sprouting agent, Gro Stop fog is a trade name of a CIPC containing product for the treatment of sprouting of potatoes.
An overview of the fresh sprout weight and the weight loss of samples that were taken on 11 February, 11 March, 8 April and 6 May is given in Table 6. […] Storage was carried out from 11 October until 16 May the year after, all products were applied by fogging.
Fresh sprout weight was assessed by weighing all sprouts per sample. Sprout weight was calculated for a standard sized sample of 1.0 kg potatoes: Fresh sprout weight(g)=fresh sprout weight sample/(weight sample unloading−sprouts)

The subject of test [2] is potatoes. The note with it: 45 g/ton at start and 15 g/ton every 20 days, after 5 months, WO 00/32063, cited from earlier work.
For test [3], the system named is potatoes. The note with it: WO 92/10934, cited from earlier work.
Test [4] deals with potatoes (Bintje and Innovator). As to the kind of experiment: Tuber treatment in cabins, sprout formation (Example 2). It counts as in vivo, Solanum tuberosum. The note with it: 600 EC limonene composition, 90 ml/1000 kg then 30 or 90 ml/1000 kg every 3 weeks, fogging. As to the method: In a second example, use of a 600 EC limonene composition according to example 1 the treatment of potatoes is illustrated.
In this example, 10 equal amounts of potatoes (20 kg Bintje and 20 kg Innovator) were treated in 5 different cabins. The first cabin acted as a control. No treating agent was applied in the first cabin.
In cabin 4, a composition according to example 1 was used, with limonene as active ingredient. The first application was done 2 weeks after harvesting at a concentration of 90 ml/1000 kg potatoes. After this application, the next applications were at a dose of 30 ml/1000 kg potatoes.
In cabin 5, the same composition as used in cabin 4 was used with 600 g/l limonene as active ingredient. The first application was done 2 weeks after harvesting at a concentration of 90 ml/1000 kg potatoes. Every 3 weeks the application was repeated at the same dose.
For all the cabins, the first treatment was on 22 October, 2 weeks after harvest. The potatoes were investigated for sprout formation at February 5, the next year, March 4, and April, 4. For each amount of potatoes the weight loss was determined, the sprout index was determined and the sprout weight was measured.
The sprout weight expressed in grams of the “Innovator”-variety potatoes is depicted in FIG. 3 for each cabin and at the 3 different times, corresponding to around 4, 5 and 6 months after harvest.

`C=C(C)[C@H]1CC=C(C)CC1` [limonene]: the “effectiveness to reach the levels of control obtainable by CIPC or mint oil” value in test [1] is “not sufficiently effective”. Also, the weight loss in the test with potatoes [2] (60 wt % limonene composition, untreated control 5.4%) is recorded as 4.5%. The sprout growth in the test with potatoes [2] (limonene as 60 wt % composition, untreated control 100%) is reported as 96.8%. Moreover, in the test on potatoes [3] (headspace concentration of 1.70 mg/L after 7 days), the “influence on potato sprouting” value was “did not have an influence on potato sprouting”. Further, in the test with potatoes [3] (three unsprouted potatoes exposed to a 2 ml limonene soaked filter paper in a desiccator flask), the eyes with sprouts is 0%. Besides, the “effectiveness as treatment agent on its own (sprout formation)” value in test [4] is recorded as “sufficient effectiveness”.
